# Literature values, collected in patent US7438896B2, “Method of skin care using lipoic and ascorbic acids” (N.V. Perricone LLC, priority 1995, dated 2008).
# Key:
# [1] = test system: cultured human keratinocytes; conditions: compositions without serine
# [2] = test system: porcine skin; conditions: compositions without serine
# [3] = test system: insulin
# [4] = test system: rat edema; conditions: compared with lipoic alone or vitamin E alone
structure (smiles),measurement,setting,value
"O=C(O)CCCCC1CCSS1 (stereo not shown) [lipoic acid, 1,2-dithiolane-3-pentanoic acid]",effect on ceramide production,[1],had no effect
same,effect on ceramide production,[2],had no effect
"O=C(O)CCCC[C@H]1CCSS1 (single isomer, unassigned) [S-enantiomer]",effect on the action of insulin,[3],decreased the effect of insulin
"O=C(O)CCCC[C@@H]1CCSS1 (single isomer, unassigned) [R-enantiomer of lipoic acid]",anti-inflammatory effect in rat edema model,[4],superior to lipoic alone or to vitamin E alone
